Legend:
Type in all cases: cell-based
DU-145 cells = test: MTT cell viability assay, 96 hr exposure; conditions: DU-145, 96 hrs; for GI50: Homo sapiens
Experimental: (§1) All cell lines were obtained from American. Type Culture Collection (Rockville, Md.) and maintained in RPM 1640 media supplemented with 10% fetal bovine serum and 5% penicillin streptomycin solution. Cells were grown as a monolayer in a humidified incubator (5% CO2) at 37° C. To determine the effect of the various compounds on cell proliferation, cells were plated (2500 cells/well) in 96-well cell culture dishes (Corning, Inc. Corning, N.Y.). After a 24 hr attachment period, media was replaced with fresh media containing compounds (0.01 μM-100 μM) or vehicle (95% ethanol). The cells were then allowed to grow in the presence of the drugs for 96 hrs. After 96 hrs, relative cell viability was assessed using the MIT reagent (3-(4,5-dimethylthiazol-2-yl)-2,5-diphenyltetrazolium bromide) as is well-known in the art. […] Results were plotted using the average of each dose over all three experiments and fitted with a best-fit sigmoidal dose response variable slope curve using GraphPad Prism 4.01 (GraphPad Software, Inc.). For combination of VN/124-1 and Thapsigargin, cells were treated for 72 hrs and viability was assessed as described for single agents. Combination index (CI) was calculated as is well known in the art, and CI values less than 1 are considered synergistic.

LNCaP cells = test: MTT cell viability assay, 96 hr exposure; conditions: for GI50: Homo sapiens
Experimental: as §1

PC-3 cells [1] = test: MTT cell viability assay, 96 hr exposure; conditions: PC-3, 96 hrs; for GI50: Homo sapiens
Experimental: as §1

PC-3 cells [2] = test: Microarray global gene expression (GeneChip Human Genome Focus Array, DAVID ontologies); conditions: 20 μM, 24 hrs
Experimental: To perform the microarray experiments, PC-3 cells were treated with (95% ethanol) or 20 μM of VN/124-1. After 24 hr exposure to the agent, cells were pelleted and lysed using Qiagen RLT (Qiagen Inc.; Valencia, Calif.) buffer containing 1% β-mercaptoethanol. Total RNA was isolated using the Qiagen RNeasy-Mini Kit following manufacturer's protocol. Quantity and purity were assessed by absorption at 260 nm and 280 nm. RNA integrity was assessed using an Agilent Bioanalyzer (Agilent Technologies; Santa Clara, Calif.). Experiments were carried out in duplicate, with triplicate samples (dosed independently on 3 different days) from each experiment pooled for analysis on a single chip.
Samples were hybridized to a GeneChip® Human Genome Focus Array (Affymetrix Inc., U.S.A.) and analyzed using an Affymetrix Genechip Scanner 3000 according to manufacturer's protocol. Gene ontologies were identified using the online Database for Annotation, Visualization, and integrated Discovery (DAVID) provided by the National Institute of Allergy and Infectious Diseases and the National Institute of Health. […] Stringent criteria of a minimum EASE/P-Value threshold of 0.001 and a gene count threshold of 5 were used to identify altered gene ontologies.

PC-3 cells [3] = test: Real-time PCR (qRT-PCR) of stress response and cell cycle related genes; conditions: 20 μM, 24 hr
Experimental: Cells were treated, lysed and RNA collected and quantified using the same method outlined above. Cells were dosed independently on 3 separate days (n=3). 1 μg of total RNA was converted to cDNA using ReactionReady™ First Strand cDNA Synthesis kit (SuperArray Bioscience Corp.; Frederick, Md.) following manufacturer's protocol. 50 ng of template cDNA was then used in subsequent real-time PCR (qRT-PCR) reactions. Template was combined with target gene specific or β-actin control RT^2 PCR Primer Sets, RT^2 Real-Time™ SYBR Green/Rox Master Mix (SuperArray Bioscience Corp.), and ddH2O for a final reaction volume of 25 μL and run on a 7900HT Fast Real-Time PCR system (Applied Biosystems; Foster City, Calif.) following manufacturer's protocol. Fold changes were calculated using the ΔΔCt method as recommended by the manufacture's protocol.

[4] = tested on: eIF2α, p-eIF2α, cyclin D1, gp78/BiP, CHOP; test: Western blot of ERSR related proteins; conditions: 20 μM
Experimental: Cells were treated with VN/124-1, thapsigargin or vehicle for 6 and 24 hrs. Protein was isolated, subjected to SDS-PAGE, transferred and imaged as is known in the art. Primary antibodies against eIF2α, p-eIF2α, cyclin D1, gp78/BiP, and β-actin were purchased from Cell Signaling (Danvers, Mass.), Anti-CHOP antibody was purchased from Sigma Aldrich (St Louis, Mo.). Quantitation of relative protein expression was determined via densitometry using the software ImageQuant 5.0 (Molecular Dynamics) with each protein normalized to its respective loading control. Results represent the average of at least 3 independent experiments, with representative blots shown.

PC-3 cells [5] = test: Cell cycle analysis by flow cytometry in synchronized cells; conditions: 20 μM
Experimental: Cells were synchronized in the G1/G0 phase by maintaining them in 0.2% FBS-containing media for 96 hrs. After starvation, media was replaced with normal growth media (10% FBS) containing vehicle (95% ethanol) or 20 μM VN/124-1 for 12, 18, and 24 hrs. At each timepoint, cells were pelleted and fixed in 70% ethanol at −20° C. for at least 24 hrs. Fixed cells were then incubated with 1 mL propidium iodide (PI) staining buffer (1 mg/ml PI, 0.1% Triton-X, and 10 μg/ml RNase A dissolved in PBS) for 1 hr at room temperature and DNA content was measured by flow cytometry analysis using a FACSort flow cytometer (Becton Dickinson, San Jose, Calif.). 15,000 events were analyzed for each sample and ModFit LT version 3.1 (Verity Software House Ind., ME) was used to analyze cell cycle distribution.

PC-3 cells [6] = test: Ca2+ transients in individual cells, Fluo-3AM; conditions: 20 μM; for transient rise in [Ca2+]i, mean peak ΔF/F0: Fluo-3AM
Experimental: (§2) PC-3 Cells were loaded with either fura-2 or fluo-3 indicator by incubation with 2 μM fura-2/AM or 2 μM fluo-3/AM in RPMI 1640 medium containing 10% fetal bovine serum for >60 min at room temperature. During experiments, the coverslips were mounted in a flow chamber and superfused with oxygenated Locke solution containing (in mM): 10 glucose, 136 NaCl, 5.6 KCl, 1.2 NaH2PO4 14.3 NaHCO3, 1.2 MgCl2, and 2.2 CaCl2, pH 7.4, at room temperature (22-24° C.).
For measurement of [Ca^2+]i in individual cells, PC-3 cells were incubated on coverslips with 20 μM VN/124-1 or vehicle for 24 hrs. Cells loaded with fura-2 were placed in a perfusion chamber mounted on an inverted microscope (TE200; Nikon, Tokyo, Japan) equipped with a UV-transmitting objective (SuperFluor, 40×, N.A. 1.4, Nikon). Pura-2 was alternately excited by 340 nm and 380 nm light from monochrometers (Deltascan Illumination System, Photonic Technology International (PTI), South Brunswick, N.J.) and fura-2 emission was passed through a 515 nm longpass tiller before detection by a cooled CCD camera (Retiga 2000R, Q-Imaging, Burnaby, Canada). For measurement of Cat^2+ transients in individual cells, coverslips with fluo-3 loaded cells were excited by the output of a 100 W mercury are lamp that passed through a 480 nm bandpass filter (30 nm bandwidth). Fluorescence emission was passed through a 515 nm longpass filter before capture by a cooled CCD camera (Retiga 2000R, Q-Imaging). Image acquisition was performed with QCapture Pro (Q-Imaging) and analysis was performed with ImageJ (U.S. National Institutes of Health Bethesda, Md. USA).
(§3) Fluo-3 Ca^2+ indicator measurements are reported as the fractional change in fluorescence intensity relative to baseline (ΔF/F0), which was determined as follows. Within a temporal sequence of fluorescence images, a region of interest (ROI) was drawn around each cell to be analyzed. The fluorescence signal from each cell was calculated as the pixel-averaged intensity within each ROI. […]

PC-3 cells [7] = test: Absolute [Ca2+]i in individual cells, Fura-2AM; conditions: 20 μM, 24 hrs, control cells about 42.05 nM
Experimental: as §2
For measurement of [Ca^2+]i in individual cells, PC-3 cells were incubated on coverslips with 20 μM VN/124-1 or vehicle for 24 hrs. Cells loaded with fura-2 were placed in a perfusion chamber mounted on an inverted microscope (TE200; Nikon, Tokyo, Japan) equipped with a UV-transmitting objective (SuperFluor, 40×, N.A. 1.4, Nikon). […] Fluorescence emission was passed through a 515 nm longpass filter before capture by a cooled CCD camera (Retiga 2000R, Q-Imaging). […]
as §3

PC-3 cells [8] = test: Co-administration of VN/124-1 and thapsigargin, MTT cell viability, combination index; conditions: 96 hrs, CI less than 1 synergistic
Experimental: All cell lines were obtained from American. Type Culture Collection (Rockville, Md.) and maintained in RPM 1640 media supplemented with 10% fetal bovine serum and 5% penicillin streptomycin solution. Cells were grown as a monolayer in a humidified incubator (5% CO2) at 37° C. To determine the effect of the various compounds on cell proliferation, cells were plated (2500 cells/well) in 96-well cell culture dishes (Corning, Inc. Corning, N.Y.). After a 24 hr attachment period, media was replaced with fresh media containing compounds (0.01 μM-100 μM) or vehicle (95% ethanol). The cells were then allowed to grow in the presence of the drugs for 96 hrs. After 96 hrs, relative cell viability was assessed using the MIT reagent (3-(4,5-dimethylthiazol-2-yl)-2,5-diphenyltetrazolium bromide) as is well-known in the art. Experiments were carried out 3 times with 6 replicates per dose per experiment (n=18). Results were plotted using the average of each dose over all three experiments and fitted with a best-fit sigmoidal dose response variable slope curve using GraphPad Prism 4.01 (GraphPad Software, Inc.). […] Combination index (CI) was calculated as is well known in the art, and CI values less than 1 are considered synergistic.

| SMILES | GI50 (DU-145 cells) | GI50 (LNCaP cells) | GI50 (PC-3 cells [1]) | GI90 (DU-145 cells) | GI90 (LNCaP cells) | GI90 (PC-3 cells [1]) | further results |
| --- | --- | --- | --- | --- | --- | --- | --- |
| C[C@]12CC[C@H](O)CC1=CC[C@@H]1[C@@H]2CC[C@]2(C)C(c3cccnc3)=CC[C@@H]12 [Abiraterone, 17-(3-pyridyl)androsta-5,16-dien-3β-ol, reference compound] | 14.7 µM | 1410 nM | 9.32 µM | – | – | – | – |
| C[C@]12CC[C@H](O)CC1=CCC1C2CC[C@]2(C)C(n3cncn3)=CCC12 (stereo partly shown) [VN/63-1] | 11 µM | 1050 nM | 2.91 µM | >100 µM | >100 µM | >100 µM | – |
| C[C@]12CC[C@H](O)CC1=CCC1C2CC[C@]2(C)C(n3ccnc3)=CCC12 (stereo partly shown) [VN/85-1] | 5.31 µM | 2470 nM | 1.86 µM | 31.62 µM | 36.49 µM | 30.41 µM | – |
| C[C@]12CC[C@H](O)CC1=CC[C@@H]1[C@@H]2CC[C@]2(C)C(n3cnc4ccccc43)=CC[C@@H]12 [VN/124-1] | 7.55 µM | 3150 nM | 7.82 µM | 15.95 µM | 31.99 µM | 18.62 µM | S100P calcium binding protein gene expression (PC-3 cells [2]): most highly up-regulated; activating transcription factor 4 (ATF4) gene expression (PC-3 cells [3]; microarray verified by qRT-PCR): up-regulated; asparagines synthetase (ASKS) gene expression (PC-3 cells [3]; microarray verified by qRT-PCR): up-regulated; CHOP gene expression (PC-3 cells [3]; qRT-PCR): strongly up-regulated; cyclin D1 mRNA levels (PC-3 cells [3]; qRT-PCR): not affected; cyclin E2 mRNA levels (PC-3 cells [3]; qRT-PCR): significantly reduced; CHOP protein level [4]: up-regulation; expression of gp78/BiP protein [4]: significantly induced; phosphorylation of eIF2α ([4]; 6 and 24 hrs): induced the phosphorylation; cyclin D1 protein ([4]; 24 hrs): down-regulation; amount of cells in G1/G0 (PC-3 cells [5]; 18 and 24 hrs, synchronized cells): significant increase; exit from G1 phase of the cell cycle (PC-3 cells [5]; cells synchronized by serum starvation): prevented the exit from G1 phase; transient rise in [Ca2+]i, mean peak ΔF/F0 (PC-3 cells [6]; extracellular calcium removed): 0.967; transient rise in [Ca2+]i, mean peak ΔF/F0 (PC-3 cells [6]; presence of extracellular calcium): 0.613; transient rise in [Ca2+]i after depletion of ER calcium stores (PC-3 cells [6]; pretreatment with SERCA inhibitor cyclopiazonic acid (CPA)): completely abolished; absolute [Ca2+]i, mean (PC-3 cells [7]): about 66.21 nM; Combination index (CI) (PC-3 cells [8]; 5 μM VN/124-1 plus 10 nM thapsigargin): 0.40; Combination index (CI) (PC-3 cells [8]; 10 μM VN/124-1 plus 10 nM thapsigargin): 0.58; Combination index (CI) (PC-3 cells [8]; 20 μM VN/124-1 plus 10 nM thapsigargin): 0.77 |
| C[C@]12CCC(=O)C=C1CCC1C2CC[C@]2(C)C(n3cnc4ccccc43)=CCC12 (stereo partly shown) [VN/125-1] | – | – | – | 15.53 µM | 13.46 µM | 8.07 µM | – |

From patent publication US8785423B2, “Compositions and methods of inducing endoplasmic reticulum stress response for the treatment of cell proliferative diseases” (University of Maryland, Baltimore, priority 2008, dated 2014)
